Results as given in patent publication US20240174723A1, “STAPLED ANTIMICROBIAL PEPTIDES (STAMPS) AND USES THEREOF” (Lytica Therapeutics, Inc., priority 2021, published 2024).
≈ marks a conversion by molar mass, not a printed value. Positions of bridges follow the written chain, without caps; N, C: chain ends. Non-standard residues stand in square brackets, D forms with d. Residues, ends and D or L forms follow the SMILES beside them. S5 = C=CCCC[C@](C)(N)C(=O)O; Dap = NC[C@H](N)C(=O)O

Key:
[1] = system: E. coli; type: cell-based, Escherichia coli
Summary of the method: (§1)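 MIC by CLSI-adapted microbroth dilution; MHB or MHB II; inoculum 5×10^5 CFU/ml final; 20-24 h, 37 °C; endpoint = no visible growth.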

[2] = system: A. baumannii; type: cell-based, Acinetobacter baumannii
Summary of the method: as §1

[3] = system: P. aeruginosa; type: cell-based, Pseudomonas aeruginosa
Summary of the method: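 MIC taken as lowest peptide concentration with no visible growth after 20-24 h at 37 °C. Peptide serial dilutions from water stocks met P. aeruginosa inoculum (5×10^5 CFU/ml final) in MHB or MHB II, per a CLSI-adapted microbroth protocol.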

[4] = system: K. pneumoniae; type: cell-based, Klebsiella pneumoniae
Summary of the method: as §1

[5] = system: S. aureus; type: cell-based, Staphylococcus aureus
Summary of the method: as §1

[6] = system: Human Liver Cells (HepG2); experiment: in vitro; type: cell-based; conditions: 48 hours
Summary of the method: (§2)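 Cytotoxicity read by CellTiter-Glo luminescence after 48 h at 37 °C exposure to serially diluted StAMPs or vehicle. HepG2 cells were grown in EMEM plus 10% FBS and given 4 h to attach before dosing; peptides came from a 5 mg/mL aqueous stock.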

[7] = system: Human Renal Proximal Tubule Epithelial Cells (RPTEC); experiment: in vitro; type: cell-based; conditions: 90 min
Summary of the method: (§3)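 LDH release (absorbance at 490 nm) measured in the media of cells treated with serially diluted StAMPs or vehicle at 37 °C: 90 min for renal RPTEC, 48 h for liver HepG2. Cells were seeded overnight beforehand and media refreshed before dosing.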

[8] = in vitro; type: cell-based; conditions: human
Summary of the method: as §3

[9] = in vitro; type: cell-based; conditions: human, Inhibitory Concentration at 50% Cytotoxicity (IC50) Human Liver Cells (HepG2)
Summary of the method: as §2

| Structure (SMILES) | Minimum Inhibitory Concentration (MIC) E. coli [1] | Minimum Inhibitory Concentration (MIC) A. baumannii [2] | Minimum Inhibitory Concentration (MIC) P. aeruginosa [3] | Minimum Inhibitory Concentration (MIC) K. pneumoniae [4] | Minimum Inhibitory Concentration (MIC) S. aureus [5] | Inhibitory Concentration at 50% Cytotoxicity (IC50) Human Liver Cells (HepG2) [6] | Inhibitory Concentration at 50% Cytotoxicity (IC50) Human Renal Proximal Tubule Epithelial Cells (RPTEC) [7] | IC50 at 90 min [8] | IC50 at 48 hours [9] |
| --- | --- | --- | --- | --- | --- | --- | --- | --- | --- |
| CC(C)[C@@H]1NC(=O)[C@@](C)(NC(=O)[C@H](C)NC(=O)[C@H](CCCCN)NC(=O)CNC(=O)[C@H](Cc2ccccc2)NC(=O)[C@H](CCCCN)NC(=O)[C@H](CCCCN)NC(=O)[C@H](CCCCN)NC(=O)[C@H](CCCCN)NC(=O)[C@H](CCN)NC(=O)[C@]2(C)CCCC=CCCC[C@](C)(NC(=O)CN)C(=O)NCC(=O)N[C@@H](CCCCN)C(=O)N[C@@H](Cc3ccccc3)C(=O)N2)CCCC=CCCC[C@@](C)(C(=O)N[C@@H](C)C(=O)N[C@@H](CCCCN)C(=O)N[C@@H](CCCCN)C(N)=O)NC(=O)[C@H](CCC(=O)O)NC(=O)CNC1=O (single isomer, unassigned) [compound 79] | 1 µg/mL | 0.5 µg/mL | 1 µg/mL | 8 µg/mL | >64 µg/mL | 113 µg/mL |  |  |  |
| CC(C)[C@@H]1NC(=O)[C@@](C)(NC(=O)[C@H](C)NC(=O)[C@H](CCCCN)NC(=O)CNC(=O)[C@H](Cc2ccccc2)NC(=O)[C@H](CCCCN)NC(=O)[C@H](CCCCN)NC(=O)[C@H](CCCCN)NC(=O)[C@H](CO)NC(=O)[C@H](Cc2c[nH]cn2)NC(=O)[C@]2(C)CCCC=CCCC[C@](C)(NC(=O)CN)C(=O)NCC(=O)N[C@@H](CCCCN)C(=O)N[C@@H](Cc3ccccc3)C(=O)N2)CCCC=CCCC[C@@](C)(C(=O)N[C@@H](C)C(=O)N[C@@H](CCCCN)C(=O)N[C@@H](CCCCN)C(N)=O)NC(=O)[C@H](CCC(=O)O)NC(=O)[C@H](Cc2c[nH]c3ccccc23)NC1=O (single isomer, unassigned) [compound 65] | 4 µg/mL | 2 µg/mL |  |  | 32 µg/mL | 150 µg/mL | 110 µg/mL |  |  |
| CC(C)[C@@H]1NC(=O)[C@@](C)(NC(=O)[C@H](C)NC(=O)[C@H](CCCCN)NC(=O)CNC(=O)[C@H](Cc2ccccc2)NC(=O)[C@H](CCCCN)NC(=O)[C@H](CCCCN)NC(=O)[C@H](CCCCN)NC(=O)[C@H](CO)NC(=O)[C@H](Cc2c[nH]cn2)NC(=O)[C@]2(C)CCCC=CCCC[C@](C)(NC(=O)CN)C(=O)NCC(=O)N[C@@H](CCCCN)C(=O)N[C@@H](Cc3ccccc3)C(=O)N2)CCCC=CCCC[C@@](C)(C(=O)N[C@@H](C)C(=O)N[C@@H](CCCCN)C(=O)N[C@@H](CCCCN)C(N)=O)NC(=O)[C@H](Cc2c[nH]c3ccccc23)NC(=O)CNC1=O [compound 66] (H-G[S5]GKF[S5]HSKKKFGKA[S5]VGW[S5]AKK-NH2; staple 2-6, 16-20) | 4 µg/mL | 4 µg/mL | 6 µg/mL | 4 µg/mL | 32 µg/mL |  |  | 16 µg/mL (≈ 6.18 µM) | 38 µg/mL (≈ 14.7 µM) |
| CC(C)[C@@H]1NC(=O)[C@@](C)(NC(=O)[C@H](C)NC(=O)[C@H](CCCCN)NC(=O)[C@H](Cc2c[nH]c3ccccc23)NC(=O)[C@H](Cc2ccccc2)NC(=O)[C@H](CCCCN)NC(=O)[C@H](CCCCN)NC(=O)[C@H](CCCCN)NC(=O)[C@H](CO)NC(=O)[C@H](Cc2c[nH]cn2)NC(=O)[C@]2(C)CCCC=CCCC[C@](C)(NC(=O)CN)C(=O)NCC(=O)N[C@@H](CCCCN)C(=O)N[C@@H](Cc3ccccc3)C(=O)N2)CCCC=CCCC[C@@](C)(C(=O)N[C@@H](C)C(=O)N[C@@H](CCCCN)C(=O)N[C@@H](CCCCN)C(N)=O)NC(=O)[C@H](CCC(=O)O)NC(=O)CNC1=O [compound 69] (H-G[S5]GKF[S5]HSKKKFWKA[S5]VGE[S5]AKK-NH2; staple 2-6, 16-20) | 4 µg/mL | 4 µg/mL | 8 µg/mL | 8 µg/mL | 32 µg/mL |  |  | 24 µg/mL (≈ 9.02 µM) | 23 µg/mL (≈ 8.64 µM) |
| CC(C)[C@@H]1NC(=O)[C@@](C)(NC(=O)[C@H](C)NC(=O)[C@H](CN)NC(=O)CNC(=O)[C@H](Cc2ccccc2)NC(=O)[C@H](CN)NC(=O)[C@H](CN)NC(=O)[C@H](CN)NC(=O)[C@H](CN)NC(=O)[C@H](CN)NC(=O)[C@]2(C)CCCC=CCCC[C@](C)(NC(=O)CN)C(=O)NCC(=O)N[C@@H](CN)C(=O)N[C@@H](Cc3ccccc3)C(=O)N2)CCCC=CCCC[C@@](C)(C(=O)N[C@@H](C)C(=O)N[C@@H](CN)C(=O)N[C@@H](CN)C(N)=O)NC(=O)[C@H](CCC(=O)O)NC(=O)CNC1=O [compound 25] (H-G[S5]G[Dap]F[S5][Dap][Dap][Dap][Dap][Dap]FG[Dap]A[S5]VGE[S5]A[Dap][Dap]-NH2; staple 2-6, 16-20) | 4 µg/mL | 32 µg/mL | 4 µg/mL | 16 µg/mL | >64 µg/mL |  |  | > 800 µg/mL | > 200 µg/mL |
| CC(C)[C@@H]1NC(=O)[C@@](C)(NC(=O)[C@H](C)NC(=O)[C@H](CCCCN)NC(=O)CNC(=O)[C@H](Cc2ccccc2)NC(=O)[C@H](CCCCN)NC(=O)[C@H](CCCCN)NC(=O)[C@H](CCCCN)NC(=O)[C@H](CO)NC(=O)[C@H](Cc2c[nH]c3ccccc23)NC(=O)[C@]2(C)CCCC=CCCC[C@](C)(NC(=O)CN)C(=O)NCC(=O)N[C@@H](CCCCN)C(=O)N[C@@H](Cc3ccccc3)C(=O)N2)CCCC=CCCC[C@@](C)(C(=O)N[C@@H](C)C(=O)N[C@@H](CCCCN)C(=O)N[C@@H](CCCCN)C(N)=O)NC(=O)[C@H](CCC(=O)O)NC(=O)CNC1=O [compound 60] (H-G[S5]GKF[S5]WSKKKFGKA[S5]VGE[S5]AKK-NH2; staple 2-6, 16-20) | 4 µg/mL | 4 µg/mL | 8 µg/mL | 32 µg/mL | >64 µg/mL |  |  | 108 µg/mL (≈ 41.8 µM) | 56 µg/mL (≈ 21.7 µM) |
